According to US20060293288A1, “Use of resolvins to treat gastrointestinal diseases” (priority 2005, published 2006):
“Also recorded” adds a separate entry of the source.

Legend:
[1] = test system: Myeloperoxidase (MPO) activity of colons; test: myeloperoxidase (MPO) assay of colon tissue in TNBS colitis; format: in vivo, mice; details: versus control vehicle
Text: (§1) FIG. 4. RvE1 reduces leukocyte infiltration and pro-inflammatory mediators in colitis. (A) Myeloperoxidase (MPO) activity of colons of mice treated with TNBS alone or mice given RvE1. *p<0.0001 versus mice treated with TNBS alone. (B) Anti-TNBS IgG level in serum on day 4 from mice treated with TNBS alone or receiving RvE1 as noted. *p<0.01. (C) Quantitative real time PCR analysis of mRNA expression of inflammatory mediators in colons obtained on day 4 from control mice (white column), mice treated with TNBS alone (black column) or receiving TNBS plus RvE1 (gray column). *p<0.01.
Each tissue sample was assessed for PMN content and infiltration. Tissues were homogenized in potassium phosphate buffer (pH 6.0) containing 0.5% hexadecyltrimethylammonium bromide, followed by three cycles of sonication and freeze-thawing. The particulate matter was removed by centrifugation (16,000 g for 20 min), and 75 μl of supernatant was added to 925 μl of potassium phosphate buffer (pH 6.0) containing 0.2 mg/ml o-dianisidine dihydrochloride (Sigma, St. Louis, Mo.) and 0.0006% hydrogen peroxide. Changes in OD were monitored at 460 nm at 25° C., at 30- and 90-s intervals. Calibration curve for conversion of MPO activities to PMN number was performed as in ref. 24.

[2] = test system: leukocyte infiltration in zymosan-induced peritonitis; test: zymosan-induced peritonitis, leukocyte (PMN) infiltration; format: in vivo, mice; details: for relative potency in the peritonitis model: compared with RvE1 or indomethacin; for effect on PMN infiltration/migration into the peritoneum (in words): peritonitis model, mice
Procedure: FIG. 1. (A) Inflammatory exudates from mice treated with EPA and aspirin generate RvE1 in vivo. (B) Inhibition of leukocyte infiltration in zymosan-induced peritonitis treated with EPA and aspirin. Mice were pre-treated for 30 min by aspirin (0.5 mg) intraperitoneally followed by EPA (0.3 mg) and zymosan. Peritoneal lavages were collected at 2 h and cells were enumerated. (n=4, *p<0.05 compared with vehicle control, **p<0.05 compared with aspirin alone). (C) Inhibition of leukocyte infiltration in zymosan-induced peritonitis. RvE1 (100 ng) was injected intravenously into tail veins followed by zymosan A into the peritoneum. Mice were sacrificed, and peritoneal lavages were collected (2 h) and cells enumerated (n=3, *p<0.01 compared with vehicle control).
Inflammatory exudates were initiated with intraperitoneal injection of 1 ml zymosan A (1 mg/ml) with 6-8-wk-old male FvB mice. Mice were pre-treated by aspirin (0.5 mg) i.p. followed by EPA (0.3 mg) and zymosan. Peritoneal lavages were collected at 2 h and cells were enumerated. Cell-free exudates were extracted by C18 solid phase extraction with deuterium-LTB4 (Cascade, UK) as an internal standard for LC-UV-MS/MS analysis using a Finnigan LCQ liquid chromatography ion trap tandem mass spectrometer equipped with a LUNA C18-2 (100×2 mm×5 μm) column and UV diode array detector using mobile phase (methanol:water:acetate at 65:35:0.01) from 0 to 8 min, ramped to methanol 8 to 30 min, with a 0.2 ml/min flow rate.

anti-TNBS IgG = test: detection of TNP-specific antibodies in serum with ELISA; format: in vivo, mice; details: day 4
Text: as §1
Sera were collected on day 4, and anti-trinitrophenyl residue (TNP) antibodies were determined by ELISA as previously described with a minor modification (25). Briefly, 100 mg of OVA was dissolved in 4 ml of 0.05M carbonate-bicarbonate buffer at pH 9.6 followed by adding 1 ml of TNBS 5% solution and incubating for 2 h at room temperature. TNP-OVA was dialyzed in PBS and then stored at −80° C. until use. For the detection of TNP-specific antibodies, TNP-OVA was dissolved at the concentration of 0.1 mg/ml in 0.05M carbonate-bicarbonate buffer at pH 9.6 and 100 μl was placed in each well of 96-well microtiter plates for coating. After blocking with 1% bovine serum albumin in PBS, plates were incubated with appropriately diluted serum. […]

[3] = test system: mRNA expression of inflammatory mediators in colons; test: quantitative real-time PCR of inflammatory mediators in colon; format: in vivo, mice; details: day 4, TNBS colitis
Text: as §1
Total RNA from colon was prepared using Trizol™ reagent (Life Technologies, Rockville, Md.). Real-time PCR was performed using the LightCycler FastStart DNA Master SYBR Green I (Roche Diagnostics GmbH, Mannheim, Germany) according to manufacturer's protocol. Primers for IFN-γ, IL-12p40, TNF-α, IL-4, TGF-β, IL-10, iNOS and glyceraldehyde-3-phosphate dehydrogenase (GAPDH) were designed as described (26). Primers for COX-2 were designed as follows: 5′-[…]-3′ and 5′-[…]-3′. Quantities of specific mRNA in the sample were measured according to the corresponding gene-specific standard curve. The relative expression of each gene was normalized against the housekeeping gene GAPDH.

TNBS-induced colitis [4] = test: TNBS-induced colitis (mortality, body weight, colon macroscopy); format: in vivo, BALB/c mice
Procedure: (C) Macroscopic appearance of the colon of mice receiving vehicle, TNBS only, or mice receiving RvE1 (0.05 mg/kg).
RvE1 was administered intraperitoneally (1.0 μg/mouse; 50 μg/kg) on the indicated days before the induction of colitis (prevention mode). Aspirin-triggered lipoxin A4 analog (ATLa; 15-epi-16-(p-fluoro)phenoxy-LXA4) was given at the same dose as a direct comparison with RvE1.

TNBS-induced colitis [5] = test: grading of histologic change of the colon in TNBS colitis; format: in vivo, BALB/c mice; details: day 4, 1.0 μg/mouse i.p.
Procedure: FIG. 3. Colon histopathology from RvE1 or ATLa-treated mice. Colon section of vehicle-treated mouse (A), 4 days after the induction of colitis by TNBS (B), mice received RvE1 (C) and ATLa (D). (E) Histological scores of the colon of mice receiving vehicle, TNBS only, TNBS plus RvE1, or TNBS plus ATLa. *p<0.05 and **p<0.01, respectively.
To generate a more chronic T cell-mediated inflammation, BALB/c mice were sensitized with 150 μl of the haptenating agent 2,4,6-trinitrobenzene sulfonic acid (TNBS; Sigma-Aldrich, St. Louis, Mo.) of 2.5% in 50% ethanol by skin painting on day −7. On day 0, 150 μl of 1% TNBS in 50% ethanol was administered intrarectally via a 3.5 F catheter under anesthesia with tribromoethanol. To ensure distribution of the TNBS within the entire colon and cecum, mice were held in a vertical position for 1 min after the instillation. On day 4, mice were killed and immunopathologic characterization was performed as previously described (23).
The degree of inflammation on microscopic cross sections of the colon was graded semi quantitatively. Severity of colitis was assessed based on five histologic criteria, each graded on a […] (0=absent, 1=mild, 2=moderate, 3=severe): mononuclear inflammation, neutrophilic infiltration/crypt abscesses, crypt hyperplasia, mucosal injury/ulceration, and mucosal hypervascularity. The five scores were summed to give a total score. […]

[6] = test system: dextran sodium sulfate (DSS)-induced colitis; details: cited from earlier work
gastric damage = details: induced by dextran sodium sulfate or aspirin; cited from earlier work

## CC[C@@H](O)/C=C/C=C\C[C@@H](O)/C=C/C=C/C=C\[C@@H](O)CCCC(=O)O [RvE1, 5S,12R,18R-trihydroxy-6Z,8E,10E,14Z,16E-eicosapentaenoic acid]
[1]
  myeloperoxidase (MPO) activity in colon: significantly lower levels
[2]; 100 ng/mouse intravenously, zymosan peritonitis, lavage at 2 h
  reduction of leukocyte infiltration: 50%
[2]
  relative potency in the peritonitis model: more potent than indomethacin
anti-TNBS IgG
  serum anti-TNBS IgG level: decreased
[3]
  COX-2 mRNA level in colon: significant reduction
  IFN-γ mRNA level in colon: direct effects were not observed
  IL-4 mRNA level in colon: direct effects were not observed
  IL-10 mRNA level in colon: direct effects were not observed
  IL-12p40 mRNA level in colon: significant reduction
  TGF-β mRNA level in colon: did not show significant differences
[3]; 0.05 mg/kg
  TNF-α mRNA level in colon: significant reduction; also recorded: dramatic decrease
  iNOS mRNA level in colon: significant reduction; also recorded: dramatic decrease
TNBS-induced colitis [4]; 0.05 mg/kg
  protection against the development of TNBS colitis: complete protection
TNBS-induced colitis [4]; RvE1 1.0 μg/mouse (0.05 mg/kg) i.p., TNBS alone 62.5%
  overall mortality: 25%
TNBS-induced colitis [4]; RvE1 1 μg/mouse or 0.05 mg/kg, versus TNBS with vehicle
  body weight loss: less weight loss
TNBS-induced colitis [4]; RvE1 0.05 mg/kg
  shortening and thickening of the colon: did not exhibit significant shortening and thickening of the colon
TNBS-induced colitis [4]; versus non-treated mice
  survival rate: significantly higher
TNBS-induced colitis [5]
  histologic features of colitis: less severe histologic features of colitis

## O=C(O)CCC[C@H](O)[C@H](O)/C=C/C=C/C=C\C=C\[C@H](O)COc1ccc(F)cc1 [ATLa, 15-epi-16-(p-fluoro)phenoxy-LXA4, reference compound]
[6]
  protection against DSS-induced colitis: protective
TNBS-induced colitis [5]
  histologic features of colitis: dramatic protection

## CCC(O)/C=C/C=C\C/C=C\C/C=C\C=C\[C@@H](O)CCCC(=O)O (mixture of isomers) [5S,18(+/−)-diHEPA]
[2]
  relative potency in the peritonitis model: equipotent to Resolvin E1
  effect on PMN infiltration/migration into the peritoneum (in words): downregulation of PMN infiltration

## COc1ccc2c(c1)c(CC(=O)O)c(C)n2C(=O)c1ccc(Cl)cc1 [indomethacin, reference compound]
[2]; zymosan peritonitis, dose not given
  reduction of leukocyte numbers in the exudate: approximately 20%

## CCCCC[C@@H](O)/C=C/C=C\C=C\C=C\[C@@H](O)[C@@H](O)CCCC(=O)O [15-epi-lipoxin A4]
Gastric damage
  protection against gastric damage: protective

## CC[C@@H](O)/C=C/C=C\C/C=C\C/C=C\C/C=C\CCCC(=O)O [18R-HEPE, reference compound]
[2]
  relative potency in the peritonitis model: much less potent

## CC/C=C\C[C@H](O)/C=C/C=C/C=C/C(O)C/C=C\C/C=C\CCC(=O)O (stereo partly drawn) [10,17 di-HDHA, 10,17S-dihydroxy-docosa-4Z,7Z,11E,13,15E,19Z-hexaenoic acid]
[2]
  effect on PMN infiltration/migration into the peritoneum (in words): inhibited both PMN migration into the peritoneum

## CC/C=C\C[C@H](O)/C=C/C=C\C=C\[C@@H](O)C/C=C\CC#CCCC(=O)O [4,5-dehydro 10,17S-dihydroxy DHA]
[2]; 100 ng dose, murine zymosan A-induced peritonitis
  inhibition of the PMN infiltration: 40%
